# Source: patent EP1421935A1 (Casini, Angela, priority 2002, dated 2004)
# Like-named read-outs stand apart in the source and are kept apart here.
# Tests used:
# [1] = transcorneal penetration of drugs (in vitro corneal permeability); conditions: rate constant of transfer across excised rabbit cornea, pH 7.4; for kin x 10^3 (hr^-1) No epithelium: denuded epithelium; for kin x 10^3 (hr^-1) Cornea intact: intact epithelium
# Method: The determination of transcorneal penetration of drugs is performed as follows. […] Excised rabbit corneas with either intact or denuded epithelium are used in these experiments. The pH is 7.4 and exposed area is 1.2 cm^2. Concentrations of drug of 40 - 2000 µM are placed in the epithelial chamber and samples of fluid are collected from the endothelial chamber at different intervals, up to 4 hr.
# [2] = molecular target: T1, bCA IV (Bos taurus, UniProt Q95323); experiment: CA inhibition, esterase method (4-nitrophenylacetate hydrolysis)
# T1 sequence (Q95323 19-284): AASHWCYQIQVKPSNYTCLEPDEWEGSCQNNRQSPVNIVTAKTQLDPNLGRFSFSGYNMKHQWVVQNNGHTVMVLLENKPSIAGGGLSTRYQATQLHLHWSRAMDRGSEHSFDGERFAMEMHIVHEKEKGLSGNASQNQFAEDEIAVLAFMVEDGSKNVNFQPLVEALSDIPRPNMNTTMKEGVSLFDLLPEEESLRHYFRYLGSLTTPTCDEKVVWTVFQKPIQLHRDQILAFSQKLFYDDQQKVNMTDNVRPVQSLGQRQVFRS
# Method: (§1) Stock solutions of inhibitor (1 mM) are prepared in distilled-deionized water with 10-20% (v/v) DMSO (which is not inhibitory at these concentrations) and dilutions up to 0.01 nM are done thereafter with distilled-deionized water. Inhibitor and enzyme solutions are preincubated together for 10 min at room temperature prior to assay, in order to allow for the formation of the E-I complex.
# [3] = molecular target: hCA I (Homo sapiens, UniProt P00915); experiment: as above
# Method: as §1
# [4] = molecular target: hCA II (Homo sapiens, UniProt P00918); experiment: as above
# Method: as §1
# [5] = solubility in aqueous buffer (UV of saturated solution); conditions: phosphate buffer, 25 °C, pH 7.4, aqueous buffer, thermodynamic from solid
# Method: The determination of solubility in aqueous buffer is performed as follows. […] The UV absorption maximum of each compound is determined (with a Cary 3 spectrophotometer) eventually diluting the solution (with MeOH) as necessary. […] The obtained saturated solution is filtered in order to remove solid compound through a Millipore 0.45 µm filter and scanned by UV at the wavelength of the absorption maximum previously determined. Total solubility is determined by the relationship: C' = A'C/A, where C = concentration of standard solution (mg/mL); A = absorbance of standard solution; A' = absorbance of the saturated solution; C' = concentration of the saturated solution (mg/mL).
# [6] = chloroform-buffer partition coefficient; format: physicochemical; conditions: pH 7.4 phosphate buffer, B compounds as sodium salts
# Method: The determination of partition coefficient is performed as follows. Chloroform - buffer partition coefficients are obtained by equilibrating the test compound between chloroform and 0.1-ionic strength pH 7.4 phosphate buffer. The concentration in each phase is determined by UV spectrophotometry or HPLC.
# [7] = system: IOP of normotensive rabbits; experiment: tonometric measurement of IOP after topical administration; format: in vivo, New Zealand albino rabbits; conditions: topical 2% solution (Fig. 2)
# Method: Tonometric measurement of IOP are performed as follows.
# Adult male New Zealand albino rabbits weighing 3-3.5 kg are used in the experiments. Three animals are used for each inhibitor studied. The experimental procedures conform to the Association for Research in Vision and Ophthalmology Resolution on the use of animals. The rabbits are kept in individual cages with food and water provided ad libitum and maintained on a 12 h light/dark cycle in a temperature controlled room, at 22-26 °C. Solutions and suspensions of inhibitors (2 %, by weight, as hydrochlorides, or sodium carboxylates) are made in distilled deionized water. The pH of these solutions is in the range of 5.5 - 7.4.
# IOP is measured using a Digilab 30R pneumatonometer (BioRad, Cambridge, MA, USA) as described by Maren et al. (Maren et al., Exp. Eye Res. 55:73-79, 1992; Brechue et al., Invest. Ophthalmol. Vis. Sci. 34:2581-2587,1993). The pressure readings are matched with two-point standard pressure measurements at least twice each day using a Digilab Calibration verifier. All IOP measurements are done by the same investigator with the same tonometer. One drop of 0.2 % oxybuprocaine hydrochloride (novesine, Sandoz) diluted 1:1 with saline is instilled in each eye immediately before each set of pressure measurements. IOP is measured three times at each time interval, and the means reported. IOP is measured first immediately before drug administration, then at 30 min after the instillation of the pharmacological agent, and then each 30 minutes for a period of 4-6 hours. For all IOP experiments drug is administered to only one eye, leaving the contralateral eye as an untreated control. The ocular hypotensive activity is expressed as the average difference in IOP between the treated and control eye, in this way minimizing the diurnal, seasonal and inter-individual variations commonly observed in the rabbit (Id.). All data are expressed as mean ± SE. Ocular hypertension is elicited in the right eye of albino rabbits by the injection of α-chymotrypsin (from Sigma) as described by Sugrue et al. (Sugrue et al., Br. J. Pharmacol. 99:59-64, 1990). The IOP of operated animals is checked after approximately four weeks, and animals with an elevated pressure of 30-36 mm Hg are used at least one month after the injection of α-chymotrypsin.
# In vivo IOP lowering experiments are done in normotensive and glaucomatous rabbits, with many of the new compounds reported here, due to their strong CA II and CA IV inhibitory properties, such as B7, B10-B13, B15, B18-B22, B25, B27, B28, B33, B37, and A40. […] Measurements are at 30, 60 and 90 min after administration Table 3.
# Chain of hCA I (P00915 whole entry): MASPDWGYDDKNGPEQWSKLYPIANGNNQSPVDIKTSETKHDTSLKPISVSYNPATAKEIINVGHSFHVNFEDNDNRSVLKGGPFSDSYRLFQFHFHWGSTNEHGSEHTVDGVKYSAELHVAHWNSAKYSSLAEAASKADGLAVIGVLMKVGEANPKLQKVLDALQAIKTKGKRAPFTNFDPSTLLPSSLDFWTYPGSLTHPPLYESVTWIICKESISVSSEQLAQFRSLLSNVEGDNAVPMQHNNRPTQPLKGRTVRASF
Structure (SMILES),Ki [2] [nM],Ki [3] [nM],Ki [4] [nM],further results
"CC(=O)Nc1nnc(S(N)(=O)=O)s1 [Acetazolamide, acetazolamide, reference compound]",–,–,–,kin x 10^3 (hr^-1) No epithelium [1]: 7.0 hr^-1; kin x 10^3 (hr^-1) Cornea intact [1]: 0.37 hr^-1
NS(=O)(=O)c1ccc(CNC(=S)NCc2ccccn2)cc1 [B7],74,124,43,–
NS(=O)(=O)c1ccc(CNC(=S)NCCc2ccccn2)cc1 [B8],75,120,38,–
NS(=O)(=O)c1ccc(CNC(=S)NCCc2ccccc2)cc1 [B9],76,126,39,–
"NS(=O)(=O)c1ccc(CNC(=S)NCCc2c[nH]cn2)cc1 [B10, 1-(4-Sulfamoylphenylmethyl)-3-[(1H-imidazol)-4-yl-ethyl]-thiourea]",52,88,30,–
NS(=O)(=O)c1ccc(CNC(=S)Nc2ccccc2C(=O)O)cc1 [B11],23,54,11,kin x 10^3 (hr^-1) No epithelium [1]: 8.3 hr^-1; kin x 10^3 (hr^-1) Cornea intact [1]: 2.9 hr^-1; solubility [5]: 41 mM; Log P [6]: 1.238
NS(=O)(=O)c1ccc(CNC(=S)Nc2cccc(C(=O)O)c2)cc1 [B12],29,38,10,kin x 10^3 (hr^-1) No epithelium [1]: 8.7 hr^-1; kin x 10^3 (hr^-1) Cornea intact [1]: 3.0 hr^-1; solubility [5]: 40 mM; Log P [6]: 1.313
"NS(=O)(=O)c1ccc(CNC(=S)NCC(=O)O)cc1 [B14, 1-(4-Sulfamoylphenylmethyl)-3-(carboxymethyl)-thiourea]",34,56,17,–
CC(NC(=S)NCc1ccc(S(N)(=O)=O)cc1)C(=O)O (stereo not drawn) [B15],29,48,10,–
NS(=O)(=O)c1ccc(CNC(=S)NCCC(=O)O)cc1 [B16],28,39,8,–
NS(=O)(=O)c1ccc(CNC(=S)NCCCC(=O)O)cc1 [B17],27,40,10,–
NS(=O)(=O)c1ccc(CNC(=S)NC(C(=O)O)c2ccccc2)cc1 (stereo not drawn) [B18],12,40,5,kin x 10^3 (hr^-1) No epithelium [1]: 12.0 hr^-1; kin x 10^3 (hr^-1) Cornea intact [1]: 5.6 hr^-1; solubility [5]: 59 mM; Log P [6]: 3.721
CC(O)C(NC(=S)NCc1ccc(S(N)(=O)=O)cc1)C(=O)O (stereo not drawn) [B21],13,24,2,–
CSCCC(NC(=S)NCc1ccc(S(N)(=O)=O)cc1)C(=O)O (stereo not drawn) [B23],10,19,3,–
CC(C)C(NC(=S)NCc1ccc(S(N)(=O)=O)cc1)C(=O)O (stereo not drawn) [B24],9,20,4,–
CC(C)CC(NC(=S)NCc1ccc(S(N)(=O)=O)cc1)C(=O)O (stereo not drawn) [B25],11,17,3,–
"CCC(C)C(NC(=S)NCc1ccc(S(N)(=O)=O)cc1)C(=O)O (stereo not drawn) [B26, 1-(4-Sulfamoylphenylmethyl)-3-(1-carboxy-2-methyl-butyl)-thiourea]",8,18,4,–
NS(=O)(=O)c1ccc(CNC(=S)NC(CC(=O)O)C(=O)O)cc1 (stereo not drawn) [B27],15,27,7,–
NC(=O)CC(NC(=S)NCc1ccc(S(N)(=O)=O)cc1)C(=O)O (stereo not drawn) [B28],9,22,5,IOP returns to baseline values after ... from administration [7]: 5 to 6 h
NS(=O)(=O)c1ccc(CNC(=S)NC(CCC(=O)O)C(=O)O)cc1 (stereo not drawn) [B29],23,39,10,–
NC(=O)CCC(NC(=S)NCc1ccc(S(N)(=O)=O)cc1)C(=O)O (stereo not drawn) [B30],21,36,9,–

Structure (SMILES),Ki [2] [nM],Ki [3] [nM],Ki [4] [nM],further results
NS(=O)(=O)c1ccc(CNC(=S)N2CCCC2C(=O)O)cc1 (stereo not drawn) [B31],55,89,21,–
NS(=O)(=O)c1ccc(CNC(=S)NC(Cc2cnc[nH]2)C(=O)O)cc1 (stereo not drawn) [B32],14,33,6,–
"NS(=O)(=O)c1ccc(CNC(=S)NC(Cc2ccccc2)C(=O)O)cc1 (stereo not drawn) [B33, 1-(4-Sulfamoylphenylmethyl)-3-(1-carboxy-2-phenyl-ethyl)-thiourea]",14,27,5,–
NS(=O)(=O)c1ccc(CNC(=S)NC(Cc2ccc(O)cc2)C(=O)O)cc1 (stereo not drawn) [B34],9,24,3,–
NS(=O)(=O)c1ccc(CNC(=S)NC(Cc2ccc(O)c(O)c2)C(=O)O)cc1 (stereo not drawn) [B35],14,30,6,–
NS(=O)(=O)c1ccc(CNC(=S)NC(Cc2c[nH]c3ccccc23)C(=O)O)cc1 (stereo not drawn) [B36],17,42,9,–
NCCCCC(NC(=S)NCc1ccc(S(N)(=O)=O)cc1)C(=O)O (stereo not drawn) [B37],34,73,10,–
N=C(N)NCCCC(NC(=S)NCc1ccc(S(N)(=O)=O)cc1)C(=O)O (stereo not drawn) [B38],56,103,18,–
NS(=O)(=O)c1ccc(CNC(=S)NCC(=O)NCC(=O)O)cc1 [B39],26,50,13,–
NS(=O)(=O)c1ccc(CNC(=S)NC(Cc2cnc[nH]2)C(=O)NCC(=O)O)cc1 (stereo not drawn) [B41],5,12,1,–
NS(=O)(=O)c1ccc(CNC(=S)NC(Cc2cnc[nH]2)C(=O)NC(Cc2ccccc2)C(=O)O)cc1 (stereo not drawn) [B42],7,19,2,–
CC(NC(=S)NCc1ccc(S(N)(=O)=O)cc1)C(=O)NC(Cc1ccccc1)C(=O)O (stereo not drawn) [B43],10,21,3,–
CC(C)CC(NC(=S)NCc1ccc(S(N)(=O)=O)cc1)C(=O)NCC(=O)O (stereo not drawn) [B44],11,20,4,–
NS(=O)(=O)c1ccc(CNC(=S)NC(CC(=O)O)C(=O)NC(CC(=O)O)C(=O)O)cc1 (stereo not drawn) [B45],25,37,12,–
NS(=O)(=O)c1ccc(CNC(=S)N2CCCC2C(=O)NCC(=O)NCC(=O)O)cc1 (stereo not drawn) [B46],8,22,3,–
NS(=O)(=O)c1ccc(CNC(=S)NC(CC(=O)O)C(=O)NC(CC(=O)O)C(=O)NC(CC(=O)O)C(=O)NC(CC(=O)O)C(=O)O)cc1 (stereo not drawn) [B47],24,51,9,–
"NS(=O)(=O)c1ccc(CN=C=S)cc1 [B, 4-isothiocyanatomethyl-benzenesulfonamide]",270,4300,162,–
"NS(=O)(=O)c1cc(Cl)c(Cl)c(S(N)(=O)=O)c1 [Dichlorophenamide 6, dichlorophenamide, reference compound]",–,–,–,"Ki ([2]; read-out: KI (nM) bCA IV, From bovine lung microsomes, by the esterase method, pH 7.40, 25°C): 380 nM"
"CCOc1ccc2nc(S(N)(=O)=O)sc2c1 [Ethoxzolamide, ethoxzolamide, reference compound]",–,–,–,solubility at 3 h [5]: 0.04 mM; Log P [6]: 1.40
"CC(=O)/N=c1/sc(S(N)(=O)=O)nn1C [Methazolamide, methazolamide, reference compound]",–,–,–,kin x 10^3 (hr^-1) No epithelium [1]: 13 hr^-1; kin x 10^3 (hr^-1) Cornea intact [1]: 1.90 hr^-1; Log P [6]: 0.06
